How the values were obtained:
Format in all cases: in vivo
[1] = system: sedge, umbrella (small-flower umbrella sedge, Cyperus difformis); assay: Test B flooded paddy test, visual plant response rating; conditions: 250 g ai/ha, Flood, applied to paddy water, 2-leaf stage, evaluated after 13 to 15 days
Summary of the method: (§1)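 Test pots are flooded 3 cm above the soil at treatment, and the test substance is introduced into this standing water. After keeping the flood level and growing plants, treated at the 2-leaf stage, for 13 to 15 days under glass, injury is assessed visually versus controls.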

rice (Oryza sativa) = assay: as above; conditions: 250 g ai/ha, Flood, applied to paddy water, 2-leaf stage, evaluated after 13 to 15 days
Summary of the method: as §1

[2] = system: ducksalad (Heteranhera limosa); assay: as above; conditions: 250 g ai/ha, Flood, applied to paddy water, 2-leaf stage, evaluated after 13 to 15 days
Summary of the method: as §1

[3] = system: barnyardgrass (Echinochloa crus-galli); assay: as above; conditions: 250 g ai/ha, Flood, applied to paddy water, 2-leaf stage, evaluated after 13 to 15 days
Summary of the method: as §1

kochia (Kochia scoparia) [4] = assay: Test A postemergence, visual plant response rating; conditions: for Kochia plant response rating (0 to 100 scale): 500 g ai/ha, postemergence, 0 is no effect, 100 is complete control; for Kochia plant response rating: Postemergence, 125 g ai/ha, 0 to 100 scale (0 no effect, 100 complete control)
Summary of the method: (§2)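 Ratings 0–100 (100 = complete control), visual, vs untreated controls at ~10 days. Application pre- or postemergence; solvent mixture with surfactant; loam/sand medium.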

[5] = system: foxtail, giant (giant foxtail, Setaria faberii); assay: Test A postemergence, visual plant response rating; conditions: for Foxtail, Giant plant response rating (0 to 100 scale): 500 g ai/ha, postemergence, 0 is no effect, 100 is complete control; for Foxtail, Giant plant response rating: Postemergence, 125 g ai/ha, 0 to 100 scale (0 no effect, 100 complete control)
Summary of the method: as §2

[6] = system: blackgrass (Alopecurus myosuroides); assay: Test A postemergence, visual plant response rating; conditions: for Blackgrass plant response rating (0 to 100 scale): 500 g ai/ha, postemergence, 0 is no effect, 100 is complete control; for Blackgrass plant response rating: Postemergence, 125 g ai/ha, 0 to 100 scale (0 no effect, 100 complete control)
Summary of the method: as §2

[7] = system: ragweed (common ragweed, Ambrosia elatior); assay: Test A postemergence, visual plant response rating; conditions: for Ragweed plant response rating (0 to 100 scale): 500 g ai/ha, postemergence, 0 is no effect, 100 is complete control; for Ragweed plant response rating: Postemergence, 125 g ai/ha, 0 to 100 scale (0 no effect, 100 complete control)
Summary of the method: as §2

corn (Zea mays) = assay: Test A postemergence, visual plant response rating; conditions: for Corn plant response rating (0 to 100 scale): 500 g ai/ha, postemergence, 0 is no effect, 100 is complete control; for Corn plant response rating: Postemergence, 125 g ai/ha, 0 to 100 scale (0 no effect, 100 complete control)
Summary of the method: as §2

[8] = system: galium (catchweed bedstraw, Galium aparine); assay: Test A postemergence, visual plant response rating; conditions: for Galium plant response rating (0 to 100 scale): 500 g ai/ha, postemergence, 0 is no effect, 100 is complete control; for Galium plant response rating: Postemergence, 125 g ai/ha, 0 to 100 scale (0 no effect, 100 complete control)
Summary of the method: as §2

[9] = system: barnyardgrass (Echinochloa crus-galli); assay: Test A postemergence, visual plant response rating; conditions: for Barnyardgrass plant response rating (0 to 100 scale): 500 g ai/ha, postemergence, 0 is no effect, 100 is complete control; for Barnyardgrass plant response rating: Postemergence, 125 g ai/ha, 0 to 100 scale (0 no effect, 100 complete control)
Summary of the method: as §2

[10] = system: pigweed (Amaranthus retroflexus); assay: Test A postemergence, visual plant response rating; conditions: for Pigweed plant response rating (0 to 100 scale): 500 g ai/ha, postemergence, 0 is no effect, 100 is complete control; for Pigweed plant response rating: Postemergence, 125 g ai/ha, 0 to 100 scale (0 no effect, 100 complete control)
Summary of the method: as §2

[11] = system: wheat (Triticum aestivum); assay: Test A postemergence, visual plant response rating; conditions: for Wheat plant response rating (0 to 100 scale): 500 g ai/ha, postemergence, 0 is no effect, 100 is complete control; for Wheat plant response rating: Postemergence, 125 g ai/ha, 0 to 100 scale (0 no effect, 100 complete control)
Summary of the method: as §2

[12] = system: Italian ryegrass (Lolium multiflorum); assay: Test A postemergence, visual plant response rating; conditions: for Ryegrass, Italian plant response rating (0 to 100 scale): 500 g ai/ha, postemergence, 0 is no effect, 100 is complete control; for Ryegrass, Italian plant response rating: Postemergence, 125 g ai/ha, 0 to 100 scale (0 no effect, 100 complete control)
Summary of the method: as §2

kochia (Kochia scoparia) [13] = assay: Test A preemergence, visual plant response rating; conditions: for Kochia plant response rating: 125 g ai/ha, preemergence, 0 to 100 scale, 0 no effect, 100 complete control; for Kochia plant response rating (0 to 100 scale): 500 g ai/ha Preemergence, approx. 10 days
Summary of the method: as §2

[14] = system: foxtail, giant (giant foxtail, Setaria faberii); assay: Test A preemergence, visual plant response rating; conditions: for Foxtail, Giant plant response rating: 125 g ai/ha, preemergence, 0 to 100 scale, 0 no effect, 100 complete control; for Foxtail, Giant plant response rating (0 to 100 scale): 500 g ai/ha Preemergence, approx. 10 days
Summary of the method: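 Ratings use a 0–100 visual scale (100 = complete control) against untreated controls, scored about 10 days after greenhouse treatment. Test chemicals were formulated in surfactant-containing non-phytotoxic solvent and applied either as soil spray after planting (preemergence) or onto one- to two-leaf, 2–10 cm plants (postemergence).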

[15] = system: ragweed (common ragweed, Ambrosia elatior); assay: Test A preemergence, visual plant response rating; conditions: for Ragweed plant response rating: 125 g ai/ha, preemergence, 0 to 100 scale, 0 no effect, 100 complete control; for Ragweed plant response rating (0 to 100 scale): 500 g ai/ha Preemergence, approx. 10 days
Summary of the method: as §2

[16] = system: barnyardgrass (Echinochloa crus-galli); assay: Test A preemergence, visual plant response rating; conditions: for Barnyardgrass plant response rating: 125 g ai/ha, preemergence, 0 to 100 scale, 0 no effect, 100 complete control; for Barnyardgrass plant response rating (0 to 100 scale): 500 g ai/ha Preemergence, approx. 10 days
Summary of the method: as §2

[17] = system: pigweed (Amaranthus retroflexus); assay: Test A preemergence, visual plant response rating; conditions: for Pigweed plant response rating: 125 g ai/ha, preemergence, 0 to 100 scale, 0 no effect, 100 complete control; for Pigweed plant response rating (0 to 100 scale): 500 g ai/ha Preemergence, approx. 10 days
Summary of the method: as §2

[18] = system: Italian ryegrass (Lolium multiflorum); assay: Test A preemergence, visual plant response rating; conditions: for Ryegrass, Italian plant response rating: 125 g ai/ha, preemergence, 0 to 100 scale, 0 no effect, 100 complete control; for Ryegrass, Italian plant response rating (0 to 100 scale): 500 g ai/ha Preemergence, approx. 10 days
Summary of the method: as §2

| SMILES | Plant response rating, Sedge, Umbrella (0 to 100 scale, 0 is no effect, 100 is complete control) [1] | Plant response rating, Rice (0 to 100 scale, 0 is no effect, 100 is complete control) (rice (Oryza sativa)) | Plant response rating, Ducksalad (0 to 100 scale, 0 is no effect, 100 is complete control) [2] | Plant response rating, Barnyardgrass (0 to 100 scale, 0 is no effect, 100 is complete control) [3] | Kochia plant response rating (0 to 100 scale) (kochia (Kochia scoparia) [4]) | Kochia plant response rating (kochia (Kochia scoparia) [4]) | Foxtail, Giant plant response rating (0 to 100 scale) [5] | Foxtail, Giant plant response rating [5] | Blackgrass plant response rating (0 to 100 scale) [6] | Blackgrass plant response rating [6] | Ragweed plant response rating (0 to 100 scale) [7] | Ragweed plant response rating [7] | Corn plant response rating (0 to 100 scale) (corn (Zea mays)) | Corn plant response rating (corn (Zea mays)) | Galium plant response rating (0 to 100 scale) [8] | Galium plant response rating [8] | Barnyardgrass plant response rating (0 to 100 scale) [9] | Barnyardgrass plant response rating [9] | Pigweed plant response rating (0 to 100 scale) [10] | Pigweed plant response rating [10] | also measured |
| --- | --- | --- | --- | --- | --- | --- | --- | --- | --- | --- | --- | --- | --- | --- | --- | --- | --- | --- | --- | --- | --- |
| CON=C(c1c(O)c(C)nn(C)c1=O)c1csc2ccccc12 (single isomer, unassigned) [Compound 46] | 0 | 0 | 0 | 0 | 0 | 0 | 0 | 0 | 0 | 0 | 70 | 40 | 0 | 0 | 60 | 30 | 0 | 0 | 20 | 10 | Wheat plant response rating (0 to 100 scale) [11]: 0; Wheat plant response rating [11]: 0; Ryegrass, Italian plant response rating (0 to 100 scale) [12]: 10; Ryegrass, Italian plant response rating [12]: 10; Kochia plant response rating (kochia (Kochia scoparia) [13]): 0; Kochia plant response rating (0 to 100 scale) (kochia (Kochia scoparia) [13]): 30; Foxtail, Giant plant response rating [14]: 0; Foxtail, Giant plant response rating (0 to 100 scale) [14]: 0; Ragweed plant response rating [15]: 20; Ragweed plant response rating (0 to 100 scale) [15]: 50; Barnyardgrass plant response rating [16]: 0; Barnyardgrass plant response rating (0 to 100 scale) [16]: 0; Pigweed plant response rating [17]: 0; Pigweed plant response rating (0 to 100 scale) [17]: 10; Ryegrass, Italian plant response rating [18]: 0; Ryegrass, Italian plant response rating (0 to 100 scale) [18]: 0 |
| C#CCO/N=C(/c1c(O)c(C)nn(C)c1=O)c1cccc2ccccc12 [Compound 82, 5-hydroxy-2,6-dimethyl-4-[(E)-[(2-propyn-1-yloxy)imino]-1-naphthalenylmethyl]-3(2H)-pyridazinone] | 0 | 0 | 0 | 0 | 90 | 80 | 80 | 70 | 100 | 90 | 100 | 90 | 30 | 0 | 100 | 90 | 80 | 50 | 90 | 70 | Wheat plant response rating (0 to 100 scale) [11]: 80; Wheat plant response rating [11]: 50; Ryegrass, Italian plant response rating (0 to 100 scale) [12]: 80; Ryegrass, Italian plant response rating [12]: 80; Kochia plant response rating (kochia (Kochia scoparia) [13]): 10; Kochia plant response rating (0 to 100 scale) (kochia (Kochia scoparia) [13]): 80; Foxtail, Giant plant response rating [14]: 100; Foxtail, Giant plant response rating (0 to 100 scale) [14]: 100; Ragweed plant response rating [15]: 90; Ragweed plant response rating (0 to 100 scale) [15]: 100; Barnyardgrass plant response rating [16]: 60; Barnyardgrass plant response rating (0 to 100 scale) [16]: 100; Pigweed plant response rating [17]: 100; Pigweed plant response rating (0 to 100 scale) [17]: 100; Ryegrass, Italian plant response rating [18]: 90; Ryegrass, Italian plant response rating (0 to 100 scale) [18]: 100 |
| CCCO/N=C(/c1c(O)c(C)nn(C)c1=O)c1cccc2ccccc12 [Compound 81] | 0 | 0 | 0 | 0 | 60 | 40 | 80 | 60 | 80 | 70 | 90 | 80 | 20 | 20 | 90 | 80 | 70 | 40 | 90 | 60 | Wheat plant response rating (0 to 100 scale) [11]: 0; Wheat plant response rating [11]: 0; Ryegrass, Italian plant response rating (0 to 100 scale) [12]: 20; Ryegrass, Italian plant response rating [12]: 30; Kochia plant response rating (kochia (Kochia scoparia) [13]): 10; Kochia plant response rating (0 to 100 scale) (kochia (Kochia scoparia) [13]): 10; Foxtail, Giant plant response rating [14]: 60; Foxtail, Giant plant response rating (0 to 100 scale) [14]: 100; Ragweed plant response rating [15]: 90; Ragweed plant response rating (0 to 100 scale) [15]: 100; Barnyardgrass plant response rating [16]: 60; Barnyardgrass plant response rating (0 to 100 scale) [16]: 70; Pigweed plant response rating [17]: 20; Pigweed plant response rating (0 to 100 scale) [17]: 100; Ryegrass, Italian plant response rating [18]: 20; Ryegrass, Italian plant response rating (0 to 100 scale) [18]: 50 |

Source: US20210045385A1, “PYRIDAZINONE-SUBSTITUTED KETOXIMES AS HERBICIDES” (FMC Corporation, priority 2018, published 2021)
